Experiment [1] addresses T1, Noradrenaline (NA) reuptake (Rattus norvegicus, UniProt Q63380).
T1 construct: synaptosomes are freshly isolated from areas of rat brain; from tissue; host or cells: rat hypothalamus synaptosomes (P2 fraction)
The experiment can be described thus: Noradrenaline (NA) reuptake inhibition in rat brain synaptosomes (hypothalamus, P2 fraction). Type of experiment: biochemical. The conditions noted are these: for inhibition at 10 µM: read-out: NA reuptake, % inhibition [10 μM]. The source says:
(§1) Noradrenaline (NA) and Serotonin (5HT) Reuptake Inhibition
(§2) In order to be able to carry out these studies in vitro, synaptosomes are freshly isolated from areas of rat brain. A so-called “P2” fraction prepared by the method of Gray and Whittaker (E. G. Gray and V. P. Whittaker (1962) J. Anat. 76, 79-88) is used in each case. For the NA uptake, these vesicular particles are isolated from the hypothalamus of male rat brains.
(§3) A detailed description of the method will be found in the literature (M. Ch. Frink, H. H. Hennies, W. Englberger, M. Haurand and B. Wilffert (1996) Arzneim.-Forsch./Drug Res. 46 (III), 11, 1029-1036).

The target of experiment [2] is T2, Serotonin (5HT) reuptake (Rattus norvegicus, UniProt P31652).
T2 construct: synaptosomes are freshly isolated from areas of rat brain; from tissue; host or cells: rat brain synaptosomes (P2 fraction)
T2 sequence (P31652 whole entry): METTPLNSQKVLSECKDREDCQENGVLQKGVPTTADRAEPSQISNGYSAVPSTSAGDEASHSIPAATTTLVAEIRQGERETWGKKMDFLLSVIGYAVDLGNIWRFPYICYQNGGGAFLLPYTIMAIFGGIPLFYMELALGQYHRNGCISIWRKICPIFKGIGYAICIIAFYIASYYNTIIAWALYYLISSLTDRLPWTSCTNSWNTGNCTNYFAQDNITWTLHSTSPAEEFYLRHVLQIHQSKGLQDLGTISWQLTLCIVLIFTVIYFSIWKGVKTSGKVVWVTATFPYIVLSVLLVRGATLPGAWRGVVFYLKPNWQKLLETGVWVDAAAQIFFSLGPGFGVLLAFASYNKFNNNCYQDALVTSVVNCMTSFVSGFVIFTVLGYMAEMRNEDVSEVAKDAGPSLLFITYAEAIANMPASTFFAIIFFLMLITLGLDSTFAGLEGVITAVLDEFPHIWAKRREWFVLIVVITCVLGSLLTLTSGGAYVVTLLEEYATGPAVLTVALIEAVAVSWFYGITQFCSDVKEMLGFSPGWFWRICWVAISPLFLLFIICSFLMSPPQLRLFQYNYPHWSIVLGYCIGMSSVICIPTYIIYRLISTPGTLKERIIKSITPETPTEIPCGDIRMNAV
In words: Serotonin (5HT) reuptake inhibition in rat brain synaptosomes (P2 fraction). Type of experiment: biochemical. Conditions: for inhibition at 10 µM: read-out: Serotonin reuptake, % inhibition [10 μM].
Excerpt: as §1, §2, §3

For experiment [3], the target named is human μ-opiate receptor (Homo sapiens, UniProt P35372). In words: Affinity for the human μ-opiate receptor ([3H]-naloxone displacement, SPA, CHO-K1 membrane preparation). Type of experiment: binding. The conditions noted are these: for inhibition at 1 µM: read-out: μ-Opioid receptor, % inhibition [1 μM]; for Ki: read-out: μ-Opioid receptor, Ki.
Chain of human μ-opiate receptor (P35372 whole entry): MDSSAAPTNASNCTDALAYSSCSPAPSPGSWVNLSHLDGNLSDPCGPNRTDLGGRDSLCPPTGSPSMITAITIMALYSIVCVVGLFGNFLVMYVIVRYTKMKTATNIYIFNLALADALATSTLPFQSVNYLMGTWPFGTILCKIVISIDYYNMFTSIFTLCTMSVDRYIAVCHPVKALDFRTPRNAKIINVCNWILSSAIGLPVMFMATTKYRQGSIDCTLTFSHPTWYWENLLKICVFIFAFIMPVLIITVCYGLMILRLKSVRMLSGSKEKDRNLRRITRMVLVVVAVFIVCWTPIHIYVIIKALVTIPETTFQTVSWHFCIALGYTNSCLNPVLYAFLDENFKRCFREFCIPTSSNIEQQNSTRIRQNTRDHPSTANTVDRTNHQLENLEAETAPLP
[4] abbreviates: 1 μM test substance, inhibition of specific [3H]-naloxone binding.
Where [5] appears, read: [3H]-naloxone, human μ-opiate receptor membranes.

Counter-ions that a name gives are not always drawn. Like-named read-outs stand apart in the source and are kept apart here.

T1 sequence (Q63380 1-617): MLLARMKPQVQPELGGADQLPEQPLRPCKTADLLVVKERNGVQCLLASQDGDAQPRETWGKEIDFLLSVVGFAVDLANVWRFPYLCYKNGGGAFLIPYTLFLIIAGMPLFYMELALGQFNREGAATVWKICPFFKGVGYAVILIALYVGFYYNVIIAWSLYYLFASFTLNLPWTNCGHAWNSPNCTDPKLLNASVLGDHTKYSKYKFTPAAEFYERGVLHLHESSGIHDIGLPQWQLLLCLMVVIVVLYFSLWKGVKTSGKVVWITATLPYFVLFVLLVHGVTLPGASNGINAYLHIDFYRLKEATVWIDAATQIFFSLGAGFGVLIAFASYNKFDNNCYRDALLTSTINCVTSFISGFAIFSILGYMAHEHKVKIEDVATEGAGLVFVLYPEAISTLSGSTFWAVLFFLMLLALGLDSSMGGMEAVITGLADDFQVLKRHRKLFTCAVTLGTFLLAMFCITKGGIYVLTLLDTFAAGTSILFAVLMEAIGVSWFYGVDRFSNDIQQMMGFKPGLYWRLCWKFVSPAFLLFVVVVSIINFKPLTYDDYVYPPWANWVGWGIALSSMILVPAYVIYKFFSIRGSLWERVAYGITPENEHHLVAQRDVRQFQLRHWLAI

As for `CN(C)C(c1ccccc1)C1CCC(N)CC1` (stereo not drawn) [compound 17, 4-(dimethylamino-phenyl-methyl)-cyclohexylamine], the Ki worked out at 870 nM in experiment [1] (rat brain synaptosomes (hypothalamus), read-out: NA reuptake, Ki); 860 nM in experiment [2] (rat brain synaptosomes, read-out: Serotonin reuptake, Ki); 440 nM in experiment [3] (setting [5]). Moreover, the inhibition at 10 µM in experiment [1] worked out at 92%; in experiment [2] it was 86%. The inhibition at 1 µM in experiment [3] (setting [4]) worked out at 83%.

As for `CN(C)C(c1ccc(F)cc1)C1CCC(N)CC1` (stereo not drawn) [compound 19, 4-[dimethylamino-(4-fluorophenyl)-methyl]-cyclohexylamine], the inhibition at 10 µM turned out to be 93% in experiment [1] and 87% in experiment [2].

As to `CN(C)C(c1cccc(F)c1)C1CCC(N)CC1` (stereo not drawn) [compound 21, 4-[dimethylamino-(3-fluorophenyl)-methyl]-cyclohexylamine], the inhibition at 10 µM in experiment [1] was determined as 90%; in experiment [2] it was 80%. For the same compound, in experiment [3] (setting [4]), the inhibition at 1 µM is 48%.

For `CN(C)C(c1ccc(Cl)cc1)C1CCC(N)CC1` (stereo not drawn) [compound 23, 4-[(4-chlorophenyl)-dimethylamino-methyl]-cyclohexylamine], the inhibition at 10 µM in experiment [1] amounted to 97%; in experiment [2] it was 64%. The inhibition at 1 µM in experiment [3] (setting [4]) came out at 58%.

On to `CN(C)C(c1cccs1)C1CCC(N)CC1` (stereo not drawn) [compound 25, 4-(dimethylamino-thiophen-2-yl-methyl)-cyclohexylamine], for which the figures for the inhibition at 10 µM in experiment [1] and in experiment [2] were 84% and 71%, respectively. Further, in experiment [3] (setting [4]), the inhibition at 1 µM came to 74%. The Ki in experiment [3] (setting [5]) stood at 260 nM.

On to `CN(C)C(CCc1ccccc1)C1CCC(N)CC1` (stereo not drawn) [compound 27, 4-(1-dimethylamino-3-phenyl-propyl)-cyclohexylamine], for which the inhibition at 10 µM in experiment [1] stood at 95%; in experiment [2], 78%.

For the compound `CN(C)C(c1ccc(F)cc1)C1CCC(CN)CC1` (stereo not drawn) [compound 33, [(4-aminomethyl-cyclohexyl)-(4-fluorophenyl)-methyl]-dimethylamine], the inhibition at 10 µM is 94% in experiment [1] and 95% in experiment [2].

Turning to `CN(C)C(c1ccc(Cl)cc1)C1CCC(C=O)CC1` (stereo not drawn) [compound 37, 4-[(4-Chloro-phenyl)-dimethylamino-methyl]-cyclohexane-carbaldehyde], the inhibition at 10 µM was found to be 97% in experiment [1] and 75% in experiment [2].

For the compound `CN(C)C(c1cccs1)C1CCC(C=O)CC1` (stereo not drawn) [compound 40, 4-(Dimethylamino-thiophen-2-yl-methyl)-cyclohexanecarbaldehyde], the inhibition at 10 µM in experiment [1] came to 77%; in experiment [2], 78%.

`CN(C)C(CCc1ccccc1)C1CCC(C=O)CC1` (stereo not drawn) [compound 43, 4-(1-Dimethylamino-3-phenyl-propyl)-cyclohexane-carbaldehyde]: the figures for the inhibition at 10 µM in experiment [1] and in experiment [2] were 98% and 80%, respectively.

On to `CN(C)C(CCc1ccccc1)C1CCC(CN)CC1` (stereo not drawn) [compound 45, [1-(4-aminomethyl-cyclohexyl)-3-phenyl-propyl]-dimethylamine], for which the inhibition at 10 µM was found to be 96% in experiment [1] and 90% in experiment [2].

For the compound `CN(C)C(c1ccc(F)cc1)C1CCC(CCN)CC1` (stereo not drawn) [compound 51, 2-{4-[dimethylamino-(4-fluorophenyl)-methyl]-cyclohexyl}-ethylamine], the inhibition at 10 µM in experiment [1] stood at 98%; in experiment [2] it was 97%.

As to `CN(C)C(c1cccc(F)c1)C1CCC(CC=O)CC1` (stereo not drawn) [compound 52, {4-[Dimethylamino-(3-fluorophenyl)-methyl]-cyclohexyl}-acetaldehyde], the inhibition at 10 µM worked out at 96% in experiment [1] and 94% in experiment [2].

Turning to `CN(C)C(c1ccc(Cl)cc1)C1CCC(CC=O)CC1` (stereo not drawn) [compound 55, {4-[(4-Chlorophenyl)-dimethylamino-methyl]-cyclohexyl}-acetaldehyde], the inhibition at 10 µM in experiment [1] came to 95%; in experiment [2] it was 88%.

Regarding `CN(C)C(CCc1ccccc1)C1CCC(CC=O)CC1` (stereo not drawn) [compound 70, [4-(1-Dimethylamino-3-phenyl-propyl)-cyclohexyl]-acetaldehyde], the results for the inhibition at 10 µM in experiment [1] and in experiment [2] were 93% and 70%, respectively.

As for `CN(C)C(CCc1ccccc1)C1CCC(CCN)CC1` (stereo not drawn) [compound 72, {1-[4-(2-amino-ethyl)-cyclohexyl]-3-phenyl-propyl}-dimethylamine], the values for the inhibition at 10 µM in experiment [1] and in experiment [2] were 91% and 79%, respectively.

Take `CCOC(=O)C=CC1CCC(C(CCc2ccccc2)N(C)C)CC1` (stereo not drawn) [compound 141, 3-[4-(1-dimethylamino-3-phenyl-propyl)-cyclohexyl]-acrylic acid ethyl ester]: the inhibition at 10 µM in experiment [1] was 98%; in experiment [2] it was 83%.

Turning to `CCOC(=O)CCC1CCC(C(CCc2ccccc2)N(C)C)CC1` (stereo not drawn) [compound 142, 3-[4-(1-dimethylamino-3-phenyl-propyl)-cyclohexyl]-propionic acid ethyl ester], the inhibition at 10 µM in experiment [1] amounted to 99%; in experiment [2] it was 84%.

Consider `CN(C)C(c1ccccc1)C1CCC(O)(Cc2ccccc2)CC1` (stereo not drawn) [compound 147, 1-benzyl-4-((dimethylamino)(phenyl)methyl)cyclohexanol hydrochloride], for which the inhibition at 10 µM in experiment [1] was 12%.

`COc1c(C(=O)NCCC2CCC(C(CCc3ccccc3)N(C)C)CC2)csc1Cl` (stereo not drawn) [compound 476, 5-chloro-4-methoxy-thiophene-3-carboxylic acid {2-[4-(1-dimethylamino-3-phenyl-propyl)-cyclohexyl]-ethyl}-amide]: in experiment [3], the inhibition at 1 µM came to 87% and the Ki was 84 nM.

Consider `CN(C)C(c1ccccc1)C1CCC(CCNC(=O)c2cccc(C#N)c2)CC1` (stereo not drawn) [compound 477, 3-cyano-N-{2-[4-(dimethylamino-phenyl-methyl)-cyclohexyl]-ethyl}-benzamide], for which, in experiment [3], the inhibition at 1 µM came out at 96% and the Ki is 13 nM.

In the case of `COc1ccc(C(=O)NCCC2CCC(C(c3ccccc3)N(C)C)CC2)c(OC)c1` (stereo not drawn) [compound 478, N-{2-[4-(dimethylamino-phenyl-methyl)-cyclohexyl]-ethyl}-2,4-dimethoxy-benzamide], in experiment [3], the inhibition at 1 µM was 95% and the Ki came to 27 nM.

With `COc1cccc(NC(=O)CC2CCC(C(Cc3ccccc3)N3CCCC3)CC2)c1` (stereo not drawn) [compound 492, N-(3-methoxyphenyl)-2-(4-(2-phenyl-1-(pyrrolidin-1-yl)ethyl)cyclohexyl)-acetamide], the values for the inhibition at 10 µM in experiment [1] and in experiment [2] were 54% and 3%, respectively.

As to `COc1ccc(NC(=O)C=C2CCC(C(c3ccc(C)cc3)N3CCCCC3)CC2)cc1` (stereo not drawn) [compound 493, N-(4-methoxyphenyl)-2-(4-(piperidin-1-yl(p-tolyl)methyl)cyclohexylidene)-acetamide], the inhibition at 10 µM was 27% in experiment [1] and 38% in experiment [2].

Turning to `Cc1ccc(C(C2CCC(=CC(=O)NCCc3ccccc3)CC2)N2CCCCC2)cc1` (stereo not drawn) [compound 494, N-phenethyl-2-(4-(piperidin-1-yl(p-tolyl)methyl)cyclohexylidene)acetamide], the values for the inhibition at 10 µM in experiment [1] and in experiment [2] were 81% and 40%, respectively.

In the case of `O=C(C=C1CCC(C(Cc2ccccc2)N2CCCC2)CC1)NCc1ccccn1` (stereo not drawn) [compound 495, 2-(4-(2-phenyl-1-(pyrrolidin-1-yl)ethyl)cyclohexylidene)-N-(pyridin-2-ylmethyl)acetamide], the inhibition at 10 µM is 16% in experiment [1] and 7% in experiment [2].

Take `Cc1ccc(C(C2CCC(=CC(=O)N(C)Cc3ccccc3)CC2)N2CCCCC2)cc1` (stereo not drawn) [compound 496, N-benzyl-N-methyl-2-(4-(piperidin-1-yl(p-tolyl)methyl)cyclohexylidene)-acetamide]: the inhibition at 10 µM in experiment [1] worked out at 26%; in experiment [2], 18%.

With `CN(C)C(c1ccccc1)C1CCC(NC(=O)c2nc(-c3cccs3)no2)CC1` (stereo not drawn) [compound 497, 3-thiophen-2-yl-[1,2,4]oxadiazole-5-carboxylic acid [4-(dimethylamino-phenyl-methyl)-cyclohexyl]-amide], the inhibition at 10 µM in experiment [1] came to 101%.

Regarding `Cc1noc(C(=O)NCCC2CCC(C(c3ccccc3)N(C)C)CC2)n1` (stereo not drawn) [compound 498, 3-methyl-[1,2,4]oxadiazole-5-carboxylic acid {2-[4-(dimethylamino-phenyl-methyl)-cyclohexyl]-ethyl}-amide], the inhibition at 10 µM in experiment [1] was 99%.

For the compound `CN(C)C(c1cccc(F)c1)C1CCC(NC(=O)c2nc(-c3ccccc3)no2)CC1` (stereo not drawn) [compound 499, 3-phenyl-[1,2,4]oxadiazole-5-carboxylic acid {4-[dimethylamino-(3-fluoro-phenyl)-methyl]-cyclohexyl}-amide], the inhibition at 10 µM in experiment [1] was found to be 103%.

Regarding `CN(C)C(c1cccc(F)c1)C1CCC(NC(=O)c2nc(CC3CC3)no2)CC1` (stereo not drawn) [compound 500, 3-cyclopropylmethyl-[1,2,4]oxadiazole-5-carboxylic acid {4-[dimethylamino-(3-fluoro-phenyl)-methyl]-cyclohexyl}-amide], the inhibition at 10 µM in experiment [1] came to 101%.

Regarding `COCc1noc(C(=O)NCCC2CCC(C(CCc3ccccc3)N(C)C)CC2)n1` (stereo not drawn) [compound 501, 3-methoxymethyl-[1,2,4]oxadiazole-5-carboxylic acid {2-[4-(1-dimethylamino-3-phenyl-propyl)-cyclohexyl]-ethyl}-amide], in experiment [1], the inhibition at 10 µM stood at 106%.

The term Ki denotes a measure of affinity in units of concentration, obtained from inhibition or displacement. One may read the inhibition as the change of the read-out against control, counted positive when it falls.
